Measured values as given in PMC9650263, “Synthesis and appraisal of dalbergin-loaded PLGA nanoparticles modified with galactose against hepatocellular carcinoma: In-vitro, pharmacokinetic, and in-silico studies” (Frontiers in Pharmacology, 2022).
Converted amounts (≈) assume the structure as drawn.

Assays:
[1] = Oral pharmacokinetic study, HPLC quantification in plasma; type: in vivo, albino Wistar rats; conditions: rat plasma, DL equivalent 100 mg/kg
Experimental: DL, DLF, and DLMF were administered orally to albino Wistar rats at a dose of DL equivalent to 100 mg/kg (Approval No: IU/IAEC/20/01), and after the first treatment, the blood samples were collected through retro-orbital plexus of the animals at 0.083, 0.25, 0.5, 1, 2, 4, 8, 12, 16, 24, and 48 h. The serum was isolated from the blood by centrifugation for 10 min at 10,000 rpm. The serum samples were kept at -20 °C until quantification by HPLC analysis.
A precise and accurate bioanalytical approach was devised for drug quantification in plasma samples. ACN was used to make 1 mg/ml stock solution of DL, and stock solution in ACN was used to make working standard solutions of 0.02, 0.1, 0.2, 0.5, 1, 2, 5, 10, 50, and 100 μg/ml. Overall, separate tubes containing 100 […] and 100 […] were vortexed for 30 min. The tubes were then spun at 13,000 rpm for 5 min. The supernatant was collected, transferred to fresh tubes, and allowed to dry overnight at a temperature of 40°C. After that, the tubes were reconstituted with 100 μL of ACN, vortexed for 5 minutes, and 20 μL of supernatant was injected into HPLC to quantify DL. The working solution concentrations were 0.01, 0.05, 0.1, 0.25, 0.5, 1, 2.5, 5.0, 25.0, and 50.0 μg/ml. Low-quality control (LQC), medium quality control (MQC), and high-quality control (HQC) samples were created with different quantities of 0.005, 0.5, and 40 μg/ml, respectively. It was necessary to create quality control samples and triplicate calibrations for each concentration. A test tube containing 100 μL of test plasma and 100 μL of ACN was vortexed for 30 min to create the test samples. To assess the final outcomes, WinNonlin version 1.5.3 was used ([Nisha et al., 2020a]; [Kumar, P., et al., 2018]; [Nisha et al., 2020b]).

HepG2 cell line = assay: SRB growth inhibition assay, anticancer efficacy; type: cell-based; conditions: Homo sapiens, HepG2, 48 h, 10-80 μg/ml, read-out: GI50 (growth inhibitory concentration)
Experimental: National Cell Repository of NCCS (Pune, India) provided the HepG2 cell line, which was then grown in our cell culture lab for further in vitro assays. The liver cancer cell lines were grown in a T-75 flask for 24 h at 37°C, 5% CO2, and absolute humidity equal to 100% in the Roswell Park Memorial Institute (RPMI)-1640 media with 10% fetal bovine serum and 2 mM L-glutamine. The cells were collected by centrifugation and incubated at a density of 5×10^3 cells/well onto 96 well plates to measure the growth. The test samples were distributed in dimethyl sulfoxide at 100 mg/ml concentration, diluted to 1 mg/ml equivalent drug concentration in distilled H2O. […] After removing the attached dye with 10 mM Trizma base, absorbance was measured at 540 nm using a 690 nm reference. The findings were acquired in triplicate on different plates, and the mean of the three trials was determined. The % cell growth was measured using absorbance data (time zero [Tz], control growth (C), and test growth in the presence of drug at different concentrations [Ti]. The % growth inhibition was calculated using the following formula Ti−Tz/C−Tz×100 for concentrations for which Ti≥Tz […]
It was shown that the quantity of protein formation was reduced by 50% at a medication concentration of […]. […]

[2] = In vitro drug release study; type: physicochemical; conditions: up to 48 h, 37°C; media pH 1.2 and 7.4 described, medium of the values not stated
Experimental: At pH values of 1.2 and 7.4, the drug release perspectives of DLF and DLMF were studied in both simulated gastric and simulated intestinal fluids. A flask was placed in an incubator with a water bath continually swirling (100 rev/min) and kept at a temperature of 37°C. The flask was filled with 10 ml of the appropriate medium and weighed amounts of DLF and DLMF that were sufficient for 10 mg of DL. The dissolving solution in the flask was then routinely replaced with new media at regular intervals, after which 2 ml of the sample was collected for DL detection. The samples were analyzed at 254 nm using a UV-Vis Spectrometer (Labtronics-2910, India), which was utilized to quantify the DL release. Triplicate dissolution tests were carried out. The data was analyzed to determine release kinetics ([Song, X., et al., 2018]; [Kanoujia, J., et al., 2021]; [Song, X., et al., 2019]; [Kumar, P., et al., 2018]).

AUC(0-inf) ([1]; albino Wistar): 244 ± 10.3 µg·h/mL
Cmax ([1]; albino Wistar): 23100 ± 840 ng/mL
MRT ([1]; albino Wistar): 11.5 ± 1.01 h
Tmax ([1]; albino Wistar): 4 h
half-life ([1]; albino Wistar): 9.63 h
AUMC [1]: 2806.95 µg.h^2/ml
GI50 (HepG2 cell line): 20 µg/mL (≈ 74.6 µM)
cumulative discharge (in vitro release) [2]: around 40.97 ± 3.01%
SMILES: COc1cc2oc(=O)cc(-c3ccccc3)c2cc1O [DL, 6-hydroxy-7-methoxy-4-phenyl-2H-cromen-2-one]
